Columns and labels:
ORP2 = target: T1, ORP2 (Homo sapiens, UniProt Q9H1P3); assay: Fluorescence polarisation (FP) competition with NBD-cholesterol, ORP2; assay type: binding; conditions: for ORP2 (FP) inhibition / inhibition at 10 µM: single dose, Dose = 10 µM; for IC50: mean of three experiments run in technical duplicates
T1 construct: ORP2(49-480); host or cells: E. coli BL21(DE3)
T1 sequence (Q9H1P3 49-480): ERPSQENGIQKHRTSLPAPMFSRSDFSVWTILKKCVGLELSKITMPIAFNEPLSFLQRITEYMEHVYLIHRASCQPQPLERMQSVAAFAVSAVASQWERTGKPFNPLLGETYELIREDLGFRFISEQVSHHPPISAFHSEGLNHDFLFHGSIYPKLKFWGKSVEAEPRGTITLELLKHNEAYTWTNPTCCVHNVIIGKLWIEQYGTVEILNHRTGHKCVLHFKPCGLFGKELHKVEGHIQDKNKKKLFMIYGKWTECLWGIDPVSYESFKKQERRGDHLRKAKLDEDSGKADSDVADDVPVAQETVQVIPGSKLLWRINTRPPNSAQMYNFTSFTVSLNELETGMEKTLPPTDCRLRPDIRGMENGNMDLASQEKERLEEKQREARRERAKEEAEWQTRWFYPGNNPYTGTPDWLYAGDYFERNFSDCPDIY
Text: (§1) Protein expression constructs
(§2) Human ASTER domains of Aster-A(359-547), -B(364-552) and -C(318-504) were subcloned into a pGEX-6p-2rbs vector, thus introducing the cloning artifact ‘GPLGS’.3 The pGEX-6P-1-GST-OSBP(377- […]
(§3) a gift from James H. Hurley (University of California).4 The pHIS_2His6_Thrombin_STARD4(2-205;C75S) plasmid was a gift from Young Jun Im (Chonnam National University).5 STARD5A was a gift from Nicola Burgess-Brown (Addgene plasmid #42392; http://n2t.net/addgene:42392; […]
(§4) Protein expression and purification […]
(§5) vectors including an N-terminal PreScission-cleavable glutathione S-transferase (GST)-tag were expressed in Escherichia coli (E. coli) OverExpress C41 in Terrific Broth (TB) medium for 16 h at 18 °C after the induction with 0.1 mM isopropyl β-D-1-thiogalactopyranoside (IPTG). Cells were harvested at 3500 × g for 15 minutes and lysed by sonication in buffer containing 50 mM HEPES pH 7.5, 300 mM NaCl, 10 %v/v glycerol, 5 mM dithiothreitol (DTT), 0.1 %v/v Triton X-100 and protease inhibitor mix HP plus (Serva). The lysate was purified by affinity chromatography on a GSTrap FF column (Cytiva) using an ÄKTA Start (Cytiva) in buffer containing 50 mM HEPES pH 7.5, 300 mM NaCl, 10 %v/v glycerol, 5 mM DTT and 0.01 %v/v Triton X-100. The GST-tag was cleaved overnight on the column at 4 °C. The Aster sterol binding domains were further purified by size-exclusion chromatography (SEC) on a HiLoad 16/600 Superdex 75 pg (Cytiva) in buffer containing 20 mM HEPES pH 7.5, 300 mM NaCl, 10 %v/v […]
(§6) STARD5(6-213) harboring an N-terminal His6-Tag were expressed in E. coli BL21(DE3) in Luria-Bertani Broth (LB) medium for approximately 16 h at 18 °C after induction with 0.15 mM IPTG. Cells were harvested at 3500 × g for 15 minutes and lysed by sonication in buffer containing 50 mM HEPES pH 7.5, 150 mM NaCl, 5 %v/v glycerol, 5 mM DTT, 0.1 %v/v Triton X -100 and ethylenediaminetetraacetic acid (EDTA)-free protease inhibitor cocktail (Sigma-Aldrich). The cleared lysate was purified by affinity chromatography on a Ni-NTA Superflow Cartridge (Qiagen) using an ÄKTA Start (Cytiva) in buffer containing 50 mM HEPES pH 7.5, 150 mM NaCl, 5 %v/v glycerol, 5 mM DTT. START domains were eluted by using elution buffer containing 50 mM HEPES pH 7.5, 150 mM NaCl, 5 %v/v glycerol, 5 mM DTT and 500 mM imidazole. Proteins were further purified by SEC on a HiLoad 16/600 Superdex 75 pg (Cytiva) in buffer containing 20 mM HEPES pH 7.5, 150 mM NaCl, 5 %v/v glycerol and 2 mM DTT.
(§7) The ORP domain of human OSBP(377-807) in the pGEX-6p-1 vector with an N-terminal PreScission-cleavable GST-tag was expressed in E. coli OverExpress C41 in LB medium for 16 h at 18 °C after induction with 0.1 mM IPTG. Cells were harvested at 3500 × g for 15 minutes and lysed by sonication in buffer containing 20 mM HEPES pH 7.5, 300 mM NaCl, 10 %v/v glycerol, 5 mM DTT, 0.1 %v/v Triton X-100 and EDTA-free protease inhibitor cocktail (Sigma-Aldrich). The cleared lysate was purified by affinity chromatography on a GSTrap HF column (Cytiva) using an ÄKTA Start (Cytiva) in buffer containing 20 mM HEPES pH 7.5, 300 mM NaCl, 10 %v/v glycerol, 5 mM DTT. OSBP(377 -807) was eluted by using elution buffer containing 20 mM HEPES pH 7.5, 300 mM NaCl, 10 %v/v glycerol, 5 mM DTT and 10 mM reduced glutathione. Proteins were further purified by SEC on a HiLoad 16/600 Superdex 75 pg (Cytiva) using an ÄKTA Explorer (Cytiva) in buffer containing 20 mM HEPES pH 7.5, 150 mM NaCl, 10 %v/v glycerol and 2 mM DTT.
(§8) The ORP domains of human ORP1(534-950) in pET24b(+) and ORP2(49-480) in the pET24b(+) vector including an N-terminal His6-Tag were expressed in E. coli BL21(DE3) in TB medium for approximately 16 h at 18 °C after induction with 0.1 mM IPTG. Cells were collected at 3500 × g for 15 minutes and lysed by sonification in buffer containing 10 mM Tris-HCl pH 8, 300 mM NaCl, 5 % glycerol, 2 mM DTT, 0.1 % Triton X-100 and EDTA-free protease inhibitor cocktail (Sigma-Aldrich). The cleared […]

STARD5 = target: T2, STARD5 (Homo sapiens, UniProt Q9NSY2); assay: Differential scanning fluorimetry (DSF), STARD5; assay type: binding; conditions: for STARD5 (DSF) ΔTm / ΔTm at 10 µM: single dose, Dose = 10 µM; for Kd: apparent Kd, mean of three experiments run in technical duplicates, read-out: STARD5 Kd,app (DSF); for STARD5 (DSF) ΔTmmax: maximal thermal shift
T2 construct: STARD5(6-213); host or cells: E. coli BL21(DE3)
T2 sequence (Q9NSY2 6-213): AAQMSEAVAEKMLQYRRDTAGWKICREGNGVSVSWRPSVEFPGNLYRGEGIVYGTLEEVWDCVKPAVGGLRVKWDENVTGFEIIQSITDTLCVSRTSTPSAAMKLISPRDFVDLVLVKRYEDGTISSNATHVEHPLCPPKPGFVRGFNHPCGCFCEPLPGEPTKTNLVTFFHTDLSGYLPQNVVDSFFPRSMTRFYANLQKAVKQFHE
Text: as §1, §2, §3, §4, §5, §6, §7, §8

Compound	inhibition at 10 µM (ORP2) [%]	ΔTm at 10 µM (STARD5) [°C]	other results
C[C@]12CC[C@@H](O)C[C@H]1CCc1c2[nH]c2ccc(Br)cc12 [Compound 10b]	–	–	ORP2 (FP) inhibition (ORP2): 21%; STARD5 (DSF) ΔTm (STARD5): 0.131 °C
C[C@]12CC[C@@H](O)C[C@H]1CCc1c2[nH]c2ccc(Cl)cc12 [Compound 10c]	–	–	ORP2 (FP) inhibition (ORP2): 32%; STARD5 (DSF) ΔTm (STARD5): 0.161 °C
C[C@]12CC[C@@H](O)C[C@H]1CCc1c2[nH]c2ccc(F)cc12 [Compound 10d]	–	–	ORP2 (FP) inhibition (ORP2): 42%; STARD5 (DSF) ΔTm (STARD5): 0.145 °C
Cc1ccc2[nH]c3c(c2c1)CC[C@@H]1C[C@H](O)CC[C@]31C [Compound 10e]	50.6	0.2	–
COc1ccc2[nH]c3c(c2c1)CC[C@@H]1C[C@H](O)CC[C@]31C [Compound 10f]	36.5	0.159	–
CC12CCC(O)CC1CCc1c2[nH]c2ccc(C(F)(F)F)cc12 (stereo not shown) [Compound 10g]	57.7	0.162	–
C[C@]12CC[C@@H](O)C[C@H]1CCc1c2[nH]c2ccc(I)cc12 [Compound 10h]	–	–	ORP2 (FP) inhibition (ORP2): 63.5%; STARD5 (DSF) ΔTm (STARD5): 0.241 °C
C[C@]12CC[C@@H](O)C[C@H]1CCc1c2[nH]c2c(F)cc(Cl)cc12 [Compound 10i]	20	0.421	–
Cc1cc(C)c2c3c([nH]c2c1)[C@@]1(C)CC[C@@H](O)C[C@H]1CC3 [Compound 10j]	15	-0.163	–
CCOC(=O)c1ccc2[nH]c3c(c2c1)CC[C@@H]1C[C@H](O)CC[C@]31C [Compound 10k]	–	–	ORP2 (FP) inhibition (ORP2): 11%; STARD5 (DSF) ΔTm (STARD5): 0.2 °C
C[C@]12CC[C@@H](O)C[C@H]1CCC(=O)c1ccccc1NC2=O [Compound 11a]	–	–	ORP2 (FP) inhibition (ORP2): 6%; STARD5 (DSF) ΔTm (STARD5): 0.0733 °C
C[C@]12CC[C@@H](O)C[C@H]1CCC(=O)c1cc(Br)ccc1NC2=O [Compound 11b]	2	0.3	–
Cc1ccc2c(c1)C(=O)CC[C@@H]1C[C@H](O)CC[C@]1(C)C(=O)N2 [Compound 11c]	-1	-0.119	–
COc1ccc2c(c1)C(=O)CC[C@@H]1C[C@H](O)CC[C@]1(C)C(=O)N2 [Compound 11d]	11	0.0281	–
C[C@]12CC[C@@H](O)C[C@H]1CCC(=O)c1cc(C(F)(F)F)ccc1NC2=O [Compound 11e]	5	0.115	–
C[C@]12CC[C@@H](O)C[C@H]1CCC(=O)c1cc(Cl)cc(F)c1NC2=O [Compound 11f]	–	–	ORP2 (FP) inhibition (ORP2): 7%; STARD5 (DSF) ΔTm (STARD5): 0.154 °C

Compound	inhibition at 10 µM (ORP2) [%]	ΔTm at 10 µM (STARD5) [°C]	other results
Cc1cc(C)c2c(c1)NC(=O)[C@@]1(C)CC[C@@H](O)C[C@H]1CCC2=O [Compound 11g]	-1	0.141	–
Cc1ccc2[nH]c3c(c(=O)c2c1)C[C@@H]1C[C@H](O)CC[C@]31C [Compound 12]	5	0.169	–
Cc1ccc2c(c1)[C@]1(O)CC[C@@H]3C[C@H](O)CC[C@]3(C)C1=N2 [Compound 14a]	53	0.5	–
COc1ccc2c(c1)[C@]1(O)CC[C@@H]3C[C@H](O)CC[C@]3(C)C1=N2 [Compound 14b]	25	0.049	–
Cc1cc(C)c2c(c1)N=C1[C@@]2(O)CC[C@@H]2C[C@H](O)CC[C@]12C [Compound 14c]	11	0.0425	–
C[C@]12CC[C@@H]3C[C@H]1CC[C@@]21C(=Nc2ccccc21)O3 [Compound 15a]	25	1.3	Kd (STARD5): > 100 µM
CC12CCC3CC1CCC21C(=Nc2ccc(Cl)cc21)O3 (stereo not shown) [Compound 15c]	47	0.56	IC50 (ORP2): 22.2 µM
C[C@]12CC[C@@H]3C[C@H]1CC[C@@]21C(=Nc2ccc(F)cc21)O3 [Compound 15d]	25	0.6	–
Cc1ccc2c(c1)[C@@]13CC[C@@H]4C[C@@H](CC[C@@]41C)OC3=N2 [Compound 15e]	38	0.8	–
COc1ccc2c(c1)[C@@]13CC[C@@H]4C[C@@H](CC[C@@]41C)OC3=N2 [Compound 15f]	73	0.268	–
C[C@]12CC[C@@H]3C[C@H]1CC[C@@]21C(=Nc2ccc(C(F)(F)F)cc21)O3 [Compound 15g]	60	0.9	IC50 (ORP2): 8.41 µM
CC12CCC3CC1CCC21C(=Nc2c(Br)cc(C(F)(F)F)cc21)O3 (stereo not shown) [Compound 15h]	49	0.2	IC50 (ORP2): 9.6 µM
C[C@]12CC[C@@H]3C[C@H]1CC[C@@]21C(=Nc2c(F)cc(Cl)cc21)O3 [Compound 15i]	41	0.109	–
CC12CCC3CC1CCC21C(=Nc2ccc(NCc4ccccc4)cc21)O3 (stereo not shown) [Compound 19b]	41	2.2	Kd (STARD5): 19.3 µM; STARD5 (DSF) ΔTmmax (STARD5): 5.3 °C
CCCCCNc1ccc2c(c1)[C@@]13CC[C@@H]4C[C@@H](CC[C@@]41C)OC3=N2 [Compound 19c]	38	1.3	IC50 (ORP2): > 80 µM; Kd (STARD5): 20.9 µM; STARD5 (DSF) ΔTmmax (STARD5): 4.8 °C
CCCCN(C)c1ccc2c(c1)[C@@]13CC[C@@H]4C[C@@H](CC[C@@]41C)OC3=N2 [Compound 19d]	51	4.5	IC50 (ORP2): > 80 µM; Kd (STARD5): 11.9 µM; STARD5 (DSF) ΔTmmax (STARD5): 7.4 °C
